The values below come from paper PMC9259591, “Irigenin, a novel lead from Iris confusa for management of Helicobacter pylori infection with selective COX-2 and HpIMPDH inhibitory potential” (Scientific Reports, 2022).

≈ marks a conversion by molar mass, not a printed value. Where “and” joins values, the source holds several entries; their conditions need not be identical. Identical values can stand only once. Like-named read-outs stand apart in the source and are kept apart here.

One assay deals with T1, ovine COX-1 (Ovis aries, UniProt P05979).
T1 construct: purchased
T1 sequence (P05979 25-600): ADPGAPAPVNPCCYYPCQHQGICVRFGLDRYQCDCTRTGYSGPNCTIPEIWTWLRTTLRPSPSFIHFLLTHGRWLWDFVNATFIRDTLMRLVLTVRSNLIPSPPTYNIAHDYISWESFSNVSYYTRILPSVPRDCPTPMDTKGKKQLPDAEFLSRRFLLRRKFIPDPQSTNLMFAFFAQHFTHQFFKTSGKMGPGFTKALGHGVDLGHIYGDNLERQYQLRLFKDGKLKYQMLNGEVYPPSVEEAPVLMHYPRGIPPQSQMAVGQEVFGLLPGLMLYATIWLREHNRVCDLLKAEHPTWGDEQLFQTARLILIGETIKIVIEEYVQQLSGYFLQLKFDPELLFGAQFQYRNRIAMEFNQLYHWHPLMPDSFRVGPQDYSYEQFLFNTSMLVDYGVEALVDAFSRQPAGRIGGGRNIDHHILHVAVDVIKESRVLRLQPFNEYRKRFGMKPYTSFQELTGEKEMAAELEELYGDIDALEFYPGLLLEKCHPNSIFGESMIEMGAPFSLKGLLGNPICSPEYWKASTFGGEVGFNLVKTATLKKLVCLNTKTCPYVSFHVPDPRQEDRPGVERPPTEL
As to the kind of experiment: COX-1 inhibitory activity, colourimetric COX inhibitor screening assay kit. The note with it: ovine COX-1; read-out: IC50 (COX-1). The class given is biochemical. The procedure: The inhibitory COX activity was assayed colourimetrically by examining the inhibition of the ovine COX-1 and human recombinant COX-2 enzymes as described by George et al.[38], using a COX inhibitor screening assay kit. The detailed procedures were described in the supplementary file.
The inhibitory COX activity was assayed colourimetrically by examining the inhibition of the ovine COX-1 and human recombinant COX-2 enzymes as described by George et al. ^2, using a COX inhibitory screening assay kit. This assay determines the COX peroxidase activity by monitoring the appearance of N,N,N',N'-tetramethyl-p-phenylenediamine (TMPD). Assay buffer (150 μL 0.1 M Tris–HCl pH 8.0), 10 μL heme and 10μL enzyme (COX-1 or COX-2) were added in each well. Ten μL of each tested sample concentration was added to each well and incubated for 15 minutes at 37°C. After incubation, 20 μL of TMPD was added to each well. For initiating the reaction, 10 μL 10 mM arachidonic acid was added and the plates were further incubated for another 2 minutes at 37°C. For terminating the reaction, 50 μL 1 N HCl and saturated stannous chloride were added.
Reaction mixture containing assay buffer and heme acted as the blank and a mixture with either COX-1 or COX-2 assay buffer and heme acted as the 100% initial activity (IA). […] The absorbances of oxidized TMPD (blue colour) were read in ELISA plate reader at 590 nm. The % inhibition was calculated using the following formula:
COX % Inhibition= [(100%IA−Inhibitor)/ 100% IA x 100]. Where, IA: 100% initial activity.
The concentration at which the tested sample produces 50% inhibition of COX-1 and/or COX-2 (IC50) was determined. The selectivity index (SI) was calculated also as IC50 (COX-1)/ (COX-2).

Assay [1] concerns the target T2, H. pylori inosine-5′-monophosphate dehydrogenase (HpIMPDH) (Helicobacter pylori, UniProt P56088).
T2 sequence (P56088 1-481): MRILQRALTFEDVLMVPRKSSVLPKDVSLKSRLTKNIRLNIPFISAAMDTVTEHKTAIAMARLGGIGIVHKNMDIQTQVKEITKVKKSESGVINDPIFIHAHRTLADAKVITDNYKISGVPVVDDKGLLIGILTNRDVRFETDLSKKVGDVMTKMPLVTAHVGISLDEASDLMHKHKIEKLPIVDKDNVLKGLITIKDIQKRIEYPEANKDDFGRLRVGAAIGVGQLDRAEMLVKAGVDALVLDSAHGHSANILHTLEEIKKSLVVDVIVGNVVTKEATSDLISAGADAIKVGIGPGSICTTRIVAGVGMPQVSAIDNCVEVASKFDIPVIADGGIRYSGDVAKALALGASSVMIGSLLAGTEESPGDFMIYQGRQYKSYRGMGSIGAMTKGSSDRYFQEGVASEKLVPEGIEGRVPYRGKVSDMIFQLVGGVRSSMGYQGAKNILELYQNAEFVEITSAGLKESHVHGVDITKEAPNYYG
Put plainly: In vitro HpIMPDH inhibition assay (NADH fluorescence). The class given is biochemical. Also noted: HpIMPDH inhibitory activity: unit not given here. On the procedure:
The assay was carried out according to Galal[40] and was described in detail in the supplementary file.
Thus, irigenin was selected to test its HpIMPDH inhibitory activity by monitoring NADH production at concentration range of 10–0.078 µM compared to clarithromycin as standard drug. Also, to examine irigenin selectivity toward the bacterial IMPDH, human hIMPDH2 inhibition potential was assayed.
The assay was carried out in a final volume of two hundred μL in black 96-well plate (Tarsons Products Pvt. Ltd., Kolkata, India) with a reaction buffer composed of one hundred mM KCl, fifty mM Tris–HCl (pH 8.6), and one mM dithiothreitol (DTT). One hundred nM H. pylori inosine-5′-monophosphate dehydrogenase (HpIMPDH) in the presence/absence of the tested compound were used. The assay mixture was then incubated at 37 °C for 10 min, and the reaction was initiated by the adding 250 μM of inosine 5ʹ‐monophosphate (IMP) and 300 μM of nicotinamide adenine dinucleotide (NAD^+) substrate buffer. The assay was allowed to proceed for 45 min at 37 °C.
The formed NADH was measured by recording the fluorescence (excitation 340 nm, emission 440 nm) using PerkinElmer EnVision Multilabel Reader (Waltham, MA) at an interval of one min. DMSO and clarithromycin were used as vehicle control and positive control, respectively. The concentration of the tested sample leading to 50% HpIMPDH inhibition (IC50) was estimated.

Another assay deals with H. pylori ATCC 700392. As to the kind of experiment: anti-Helicobacter pylori activity, microwell dilution method with MTT. In kind it is cell-based. Conditions: for MIC: read-out: MIC (H. pylori). On the procedure:
The anti-Helicobacter pylori activity of the PF and NPF as well as the isolated compounds was evaluated against H. pylori ATCC 700392 (type strain, obtained from the American Type Culture Collection unit (ATCC), using microwell dilution method and clarithromycin as standard drug[37]. The detailed procedures were described in the supplementary file.
The anti-Helicobacter pylori activity of the PF and NPF as well as the isolated compounds was evaluated against H. pylori ATCC 700392 (a type strain, obtained from the American Type Culture Collection unit (ATCC), using microwell dilution method and clarithromycin as standard drug ^1. The tested samples were prepared in dimethyl sulfoxide and successive ten twofold dilutions (125- 0.24 µg/mL) were carried out in a 96-well plate. Each microplate well included forty μL of Brain Heart Infusion growth medium and 10% fetal bovine serum (FBS), ten μL of inoculum and fifty μL of the tested sample. The plates were incubated for 3 days, in 5% oxygen, 10% carbon dioxide, 85 % nitrogen atmosphere at 37°C. Forty μL of 3- (4, 5-dimethyl-thiazol-2-yl)- 2,5-diphenyl-tetrazolium bromide (MTT) at a final concentration of 0.5 mg/mL freshly prepared in H2O was added to each well and incubated for 30 min. The bacteria were biologically active when change to purple color was observed ^1. While no change in MTT color indicated inhibition. Solvent control (DMSO) and the standard antibiotic (clarithromycin) were used as negative and positive controls, respectively. The H. pylori inhibition % was calculated using the given formula:
% Inhibition = Abs control – Abs sample × 100 /Abs control.

As for `COc1cc(-c2coc3cc(O)c(OC)c(O)c3c2=O)cc(O)c1OC` [Irigenin (P3), 3′,5,7-trihydroxy-4′,5′,6 trimethoxyisoflavone], the IC50 (usually the point on the concentration scale where inhibition reaches its midpoint) was 35.2 ± 1.4 µM at ovine COX-1 and 2.07 ± 1.9 µM in assay [1]. In addition, the HpIMPDH inhibitory activity in assay [1] (sample conc. 0.078 (range 10–0.078 µM)) was 0.00; in assay [1] (sample conc. 0.156 (range 10–0.078 µM)), 0.00; in assay [1] (sample conc. 0.313 (range 10–0.078 µM)), 6.14 ± 1.90; in assay [1] (sample conc. 0.625 (range 10–0.078 µM)), 10.25 ± 2.80; in assay [1] (sample conc. 1.25 (range 10–0.078 µM)), 24.19 ± 1.70; in assay [1] (sample conc. 2.5 (range 10–0.078 µM)) it was 59.31 ± 1.40. For the same compound, the HpIMPDH inhibitory activity in assay [1] (sample conc. 5 (range 10–0.078 µM)) amounted to 71.08 ± 1.30; in assay [1] (sample conc. 10 (range 10–0.078 µM)), 83.25 ± 0.58. The MIC (commonly the lowest concentration that inhibits growth of the organism) is 3.9 µg/mL and 10.8 µM in the assay with H. pylori ATCC 700392 (Helicobacter pylori, ATCC700392); 10.82 µM (≈ 3.9 µg/mL) with H. pylori ATCC 700392 (concentration required for 100% inhibition, H. pylori ATCC 700392). Moreover, in the assay with H. pylori ATCC 700392 (concentration required for 100% inhibition, H. pylori ATCC 700392, ND = not detected), the “MIC (H. pylori)” value was 3.90 µg/mL (≈ 10.8 µM).
